Experimental data: patent US20050148627A1, “Benzopyran compounds for use in the treatment and prevention of inflammation related conditions” (priority 2003, published 2005)
“And” between values parts separate entries of the source, which are not always exact repeats. Equal values may be shown once.

Target: COX-1 (Homo sapiens, UniProt P23219)
Experiment: biochemical
Procedure: Evaluation of COX-1 and COX-2 Activity In Vitro
b. Assay for COX-1 and COX-2 Activity
COX activity was assayed as PGE2 formed/μg protein/time using an ELISA to detect the prostaglandin released. CHAPS-solubilized insect cell membranes containing the appropriate COX enzyme were incubated in a potassium phosphate buffer (50 mM, pH 8.0) containing epinephrine, phenol, and heme with the addition of arachidonic acid (10 μM). Compounds were pre-incubated with the enzyme for 10-20 minutes prior to the addition of arachidonic acid. […] The PGE2 formed was measured by standard ELISA technology (Cayman Chemical).

COX-1, sequence (P23219 24-599): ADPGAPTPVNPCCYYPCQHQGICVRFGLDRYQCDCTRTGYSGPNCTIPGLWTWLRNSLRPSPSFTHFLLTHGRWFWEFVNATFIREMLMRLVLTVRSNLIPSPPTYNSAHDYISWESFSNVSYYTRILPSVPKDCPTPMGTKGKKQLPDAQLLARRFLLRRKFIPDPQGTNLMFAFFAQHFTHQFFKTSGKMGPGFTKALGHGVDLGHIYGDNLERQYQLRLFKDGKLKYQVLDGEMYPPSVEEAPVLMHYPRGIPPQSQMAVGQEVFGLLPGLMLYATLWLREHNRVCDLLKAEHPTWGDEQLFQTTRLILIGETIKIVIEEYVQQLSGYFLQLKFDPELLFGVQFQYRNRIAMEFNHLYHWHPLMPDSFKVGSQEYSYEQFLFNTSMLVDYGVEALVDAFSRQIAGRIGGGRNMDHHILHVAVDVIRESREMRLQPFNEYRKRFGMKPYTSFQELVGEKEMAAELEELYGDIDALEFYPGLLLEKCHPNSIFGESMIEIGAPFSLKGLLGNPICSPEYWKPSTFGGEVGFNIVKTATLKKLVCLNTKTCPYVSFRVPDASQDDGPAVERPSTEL

Structure (SMILES): O=C(O)C1=Cc2cc(OCc3ccccc3)cc(Cl)c2OC1C(F)(F)F (centres unmarked) [Example 17d, 6-(benzyloxy)-8-chloro-2-(trifluoromethyl)-2H-chromene-3-carboxylic acid]
- IC50: 0.365 µM and < 0.137 µM

Structure (SMILES): CCCCCCOc1cc(Cl)c2c(c1)C=C(C(=O)O)C(C(F)(F)F)O2 (centres unmarked) [Example 17e, 8-chloro-6-(hexyloxy)-2-(trifluoromethyl)-2H-chromene-3-carboxylic acid]
- IC50: < 0.137 µM

Structure (SMILES): CCCOc1cc(Cl)c2c(c1)C=C(C(=O)O)C(C(F)(F)F)O2 (centres unmarked) [Example 17f, 8-chloro-6-propoxy-2-(trifluoromethyl)-2H-chromene-3-carboxylic acid]
- IC50: 11.8 µM

Structure (SMILES): O=C(O)C1=Cc2cc(OC3CCCCC3)cc(Cl)c2OC1C(F)(F)F (centres unmarked) [Example 17g, 8-chloro-6-(cyclohexyloxy)-2-(trifluoromethyl)-2H-chromene-3-carboxylic acid]
- IC50: 0.5 µM and 0.392 µM

Structure (SMILES): COc1cc(Cl)c2c(c1Cl)C=C(C(=O)O)C(C(F)(F)F)O2 (centres unmarked) [Example 18a, 5,8-dichloro-6-methoxy-2-(trifluoromethyl)-2H-chromene-3-carboxylic acid]
- IC50: < 0.137 µM

Structure (SMILES): COc1cc2c(c(Cl)c1Cl)OC(C(F)(F)F)C(C(=O)O)=C2 (centres unmarked) [Example 19, 7,8-dichloro-6-methoxy-2-(trifluoromethyl)-2H-chromene-3-carboxylic acid]
- IC50: 82.1 µM and 34.7 µM

Structure (SMILES): COc1c(Cl)c(Cl)c2c(c1Cl)C=C(C(=O)O)C(C(F)(F)F)O2 (centres unmarked) [Example 20a, 5,7,8-trichloro-6-methoxy-2-(trifluoromethyl)-2H-chromene-3-carboxylic acid]
- IC50: < 0.137 µM

Structure (SMILES): O=C(O)C1=Cc2cc(OC(F)(F)F)cc(C#Cc3ccccc3)c2OC1C(F)(F)F (centres unmarked) [Example 21c, 8-(phenylethynyl)-6-(trifluoromethoxy)-2-(trifluoromethyl)-2H-chromene-3-carboxylic acid]
- IC50: 19.2 µM and 9.68 µM

Structure (SMILES): CC#Cc1cc(OC(F)(F)F)cc2c1OC(C(F)(F)F)C(C(=O)O)=C2 (centres unmarked) [Example 21d, 8-prop-1-ynyl-6-(trifluoromethoxy)-2-(trifluoromethyl)-2H-chromene-3-carboxylic acid]
- IC50: 0.182 µM

Structure (SMILES): CCCC#Cc1cc(OC(F)(F)F)cc2c1OC(C(F)(F)F)C(C(=O)O)=C2 (centres unmarked) [Example 21e, 8-pent-1-ynyl-6-(trifluoromethoxy)-2-(trifluoromethyl)-2H-chromene-3-carboxylic acid]
- IC50: 6.52 µM and 3.06 µM

Structure (SMILES): C#Cc1cc(OC(F)(F)F)cc2c1OC(C(F)(F)F)C(C(=O)O)=C2 (centres unmarked) [Example 21f, 8-ethynyl-6-(trifluoromethoxy)-2-(trifluoromethyl)-2H-chromene-3-carboxylic acid]
- IC50: < 0.137 µM and 0.0312 µM

Structure (SMILES): CCc1cc(OC(F)(F)F)cc2c1OC(C(F)(F)F)C(C(=O)O)=C2 (centres unmarked) [Example 21g, 8-ethyl-6-(trifluoromethoxy)-2-(trifluoromethyl)-2H-chromene-3-carboxylic acid]
- IC50: 24.4 µM and 21.6 µM and 9.14 µM and 10.7 µM

Structure (SMILES): CC(C)Cc1cc(OC(F)(F)F)cc2c1OC(C(F)(F)F)C(C(=O)O)=C2 (centres unmarked) [Example 21h, 8-isobutyl-6-(trifluoromethoxy)-2-(trifluoromethyl)-2H-chromene-3-carboxylic acid]
- IC50: > 100 µM and 217 µM

Structure (SMILES): CCCCCc1cc(OC(F)(F)F)cc2c1OC(C(F)(F)F)C(C(=O)O)=C2 (centres unmarked) [Example 21j, 8-pentyl-6-(trifluoromethoxy)-2-(trifluoromethyl)-2H-chromene-3-carboxylic acid]
- IC50: 40.4 µM

Structure (SMILES): C=Cc1cc(OC(F)(F)F)cc2c1OC(C(F)(F)F)C(C(=O)O)=C2 (centres unmarked) [Example 21n, 6-(trifluoromethoxy)-2-(trifluoromethyl)-8-vinyl-2H-chromene-3-carboxylic acid]
- IC50: < 0.137 µM

Structure (SMILES): O=C(O)C1=Cc2cc(OC(F)(F)F)cc(CCc3ccccc3)c2OC1C(F)(F)F (centres unmarked) [Example 21o, 8-(2-phenylethyl)-6-(trifluoromethoxy)-2-(trifluoromethyl)-2H-chromene-3-carboxylic acid]
- IC50: 54.8 µM and 68.2 µM

Structure (SMILES): N#Cc1cc(OC(F)(F)F)cc2c1OC(C(F)(F)F)C(C(=O)O)=C2 (centres unmarked) [Example 21p, 8-cyano-6-(trifluoromethoxy)-2-(trifluoromethyl)-2H-chromene-3-carboxylic acid]
- IC50: 39.2 µM

Structure (SMILES): CCC#Cc1cc(OC(F)(F)F)cc2c1OC(C(F)(F)F)C(C(=O)O)=C2 (centres unmarked) [Example 21q, 8-but-1-ynyl-6-(trifluoromethoxy)-2-(trifluoromethyl)-2H-chromene-3-carboxylic acid]
- IC50: 5.71 µM

Structure (SMILES): CCCCc1cc(OC(F)(F)F)cc2c1OC(C(F)(F)F)C(C(=O)O)=C2 (centres unmarked) [Example 21r, 8-butyl-6-(trifluoromethoxy)-2-(trifluoromethyl)-2H-chromene-3-carboxylic acid]
- IC50: 83.8 µM

Structure (SMILES): C=CCc1cc(OC(F)(F)F)cc2c1OC(C(F)(F)F)C(C(=O)O)=C2 (centres unmarked) [Example 21s, 8-allyl-6-(trifluoromethoxy)-2-(trifluoromethyl)-2H-chromene-3-carboxylic acid]
- IC50: > 100 µM and 119 µM

Structure (SMILES): O=C(O)C1=Cc2cc(Cl)c(I)c(Cl)c2OC1C(F)(F)F (centres unmarked) [Example 22, 6,8-dichloro-7-iodo-2-(trifluoromethyl)-2H-chromene-3-carboxylic acid]
- IC50: > 1 µM and 25.6 µM and 12.4 µM

Structure (SMILES): CCCOc1ccc(Cl)c2c1OC(C(F)(F)F)C(C(=O)O)=C2 (centres unmarked) [Example 23a, 5-chloro-8-propoxy-2-(trifluoromethyl)-2H-chromene-3-carboxylic acid]
- IC50: > 500 µM

Structure (SMILES): CCC(CC)COc1ccc(Cl)c2c1OC(C(F)(F)F)C(C(=O)O)=C2 (centres unmarked) [Example 23b, 5-chloro-8-(2-ethylbutoxy)-2-(trifluoromethyl)-2H-chromene-3-carboxylic acid]
- IC50: 159 µM and > 100 µM

Structure (SMILES): O=C(O)C1=Cc2c(Cl)ccc(OCc3ccccc3)c2OC1C(F)(F)F (centres unmarked) [Example 23c, 8-(benzyloxy)-5-chloro-2-(trifluoromethyl)-2H-chromene-3-carboxylic acid]
- IC50: 48.4 µM and 62.6 µM

Structure (SMILES): COc1ccc(Cl)c2c1OC(C(F)(F)F)C(C(=O)O)=C2 (centres unmarked) [Example 23d, 5-chloro-8-methoxy-2-(trifluoromethyl)-2H-chromene-3-carboxylic acid]
- IC50: > 500 µM

Structure (SMILES): COc1cc(Cl)c(Cl)c2c1OC(C(F)(F)F)C(C(=O)O)=C2 (centres unmarked) [Example 23e, 5,6-dichloro-8-methoxy-2-(trifluoromethyl)-2H-chromene-3-carboxylic acid]
- IC50: 0.471 µM and < 0.132 µM

Structure (SMILES): COc1ccc(Br)c2c1OC(C(F)(F)F)C(C(=O)O)=C2 (centres unmarked) [Example 24a, 5-bromo-8-methoxy-2-(trifluoromethyl)-2H-chromene-3-carboxylic acid]
- IC50: > 500 µM

Structure (SMILES): CCOc1ccc(Br)c2c1OC(C(F)(F)F)C(C(=O)O)=C2 (centres unmarked) [Example 24b, 5-bromo-8-ethoxy-2-(trifluoromethyl)-2H-chromene-3-carboxylic acid]
- IC50: > 500 µM

Structure (SMILES): O=C(O)C1=Cc2cccc(Oc3ccc([N+](=O)[O-])cc3F)c2OC1C(F)(F)F (centres unmarked) [Example 25a, 8-(2-fluoro-4-nitrophenoxy)-2-(trifluoromethyl)-2H-chromene-3-carboxylic acid]
- IC50: > 500 µM

Structure (SMILES): Nc1ccc(Oc2cccc3c2OC(C(F)(F)F)C(C(=O)O)=C3)c(F)c1 (centres unmarked) [Example 25b, 8-(4-amino-2-fluorophenoxy)-2-(trifluoromethyl)-2H-chromene-3-carboxylic acid]
- IC50: < 0.686 µM and < 0.137 µM and 0.14 µM

Structure (SMILES): CCCOc1cccc2c1OC(C(F)(F)F)C(C(=O)O)=C2 (centres unmarked) [Example 25e, 8-propoxy-2-(trifluoromethyl)-2H-chromene-3-carboxylic acid]
- IC50: > 100 µM

Structure (SMILES): CCCCOc1cccc2c1OC(C(F)(F)F)C(C(=O)O)=C2 (centres unmarked) [Example 25f, 8-butoxy-2-(trifluoromethyl)-2H-chromene-3-carboxylic acid]
- IC50: > 100 µM
